Data reported in US10125100B2, “Kinase inhibitors” (Respivert Limited, priority 2014, dated 2018).
Where two headings read alike, the source gives them in different places.

Key:
non-mutant kinases = assay: KinomeScan selectivity scores; type: binding; conditions: for number of individual kinase hits S(1): % Ctrl <1; for number of individual kinase hits S(10): % Ctrl <10; for number of individual kinase hits S(35): % Ctrl <35; for KinomeScan Selectivity Score S(1): non-mutant kinases with % Ctrl <1 / kinases tested; for KinomeScan Selectivity Score S(10): non-mutant kinases with % Ctrl <10 / kinases tested; for KinomeScan Selectivity Score S(35): non-mutant kinases with % Ctrl <35 / kinases tested
Text: (§1) These assays may be conducted by DiscoverX (formerly Ambit; San Diego, Calif.).

p38 MAPKα (MAPK14) = p38 MAPKα (MAPK14) (Homo sapiens (Human), UniProt Q16539); assay: p38 MAPKα enzyme inhibition (Method 2), Z-LYTE FRET; type: biochemical
Outline: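 Enzyme (200 ng/mL solution) was preincubated 2 h at RT with compound solutions of 1, 0.1, 0.01 or 0.001 μg/mL, and inhibition was read indirectly via MAPKAP-K2 activation/phosphorylation. After a 1 h RT reaction and 1 h protease development, phosphorylation was derived from the coumarin/fluorescein emission ratio.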

Jurkat cells = assay: (r) Cell cytotoxicity assay; type: cell-based, human; conditions: 24 hours
Outline: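 Viability read by flow cytometry as the fraction of propidium iodide-negative cells (7.5 μg/mL PI, 15 min), relative to 1.0% DMSO control. Beforehand, 1×10^5 Jurkat cells in RPMI/10% FBS were treated 24 h at 37° C., 5% CO2 with test compound at final 20, 5 or 1 μg/mL.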

B-Raf (V600E) = B-Raf (V600E) (Homo sapiens (Human), UniProt P15056, V600E); assay: KINOMEscan binding of kinase to standard ligand; conditions: KINOMEscan technology
Text: as §1

B-Raf = B-Raf (Homo sapiens (Human), UniProt P15056); assay: KINOMEscan binding of kinase to standard ligand; conditions: KINOMEscan technology
Text: as §1

[1] = Pharmacokinetics and total colon distribution after oral administration; type: in vivo; conditions: male, C57BL/6, mouse, mice, Ex. 36 measured after oral 5 mg/kg of Ex. 47 (Na salt)
Protocol: Studies were conducted by Sai Life Sciences (Hinjewadi, Pune, India) to investigate the systemic pharmacokinetics and total colon tissue distribution of compounds of the invention. In particular, pharmacokinetic studies were carried out in male C57BL/6 mice following a single oral administration of the compound.

c-Src = c-Src (Homo sapiens (Human), UniProt P12931); assay: c-Src enzyme inhibition, Z-LYTE FRET; type: biochemical
Outline: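 Z-LYTE FRET peptide phosphorylation read as donor coumarin over acceptor fluorescein ratio after 1 hr protease development. Compounds (1–0.001 μg/mL) preincubated 2 hr at RT with enzyme; ATP solutions 60 μM for Syk, 800 μM for c-Src; kinase reaction 1 hr.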

Syk = Syk (Homo sapiens (Human), UniProt P43405); assay: Syk enzyme inhibition, Z-LYTE FRET; type: biochemical
Outline: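 Syk or c-Src enzyme (3000 or 2000 ng/mL solutions) was preincubated 2 h at RT with compound solutions at 1, 0.1, 0.01 or 0.001 µg/mL. Z-LYTE FRET peptide (8 µM solution) and ATP (800 µM solution for c-Src, 60 µM for Syk) were then added for 1 h, followed by protease development for 1 h. Phosphorylation was read as the coumarin/fluorescein emission ratio.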

[2] = total colon, read-out: total colon level
[3] = whole blood, read-out: Mean blood concentration

Chain of B-Raf (P15056 whole entry): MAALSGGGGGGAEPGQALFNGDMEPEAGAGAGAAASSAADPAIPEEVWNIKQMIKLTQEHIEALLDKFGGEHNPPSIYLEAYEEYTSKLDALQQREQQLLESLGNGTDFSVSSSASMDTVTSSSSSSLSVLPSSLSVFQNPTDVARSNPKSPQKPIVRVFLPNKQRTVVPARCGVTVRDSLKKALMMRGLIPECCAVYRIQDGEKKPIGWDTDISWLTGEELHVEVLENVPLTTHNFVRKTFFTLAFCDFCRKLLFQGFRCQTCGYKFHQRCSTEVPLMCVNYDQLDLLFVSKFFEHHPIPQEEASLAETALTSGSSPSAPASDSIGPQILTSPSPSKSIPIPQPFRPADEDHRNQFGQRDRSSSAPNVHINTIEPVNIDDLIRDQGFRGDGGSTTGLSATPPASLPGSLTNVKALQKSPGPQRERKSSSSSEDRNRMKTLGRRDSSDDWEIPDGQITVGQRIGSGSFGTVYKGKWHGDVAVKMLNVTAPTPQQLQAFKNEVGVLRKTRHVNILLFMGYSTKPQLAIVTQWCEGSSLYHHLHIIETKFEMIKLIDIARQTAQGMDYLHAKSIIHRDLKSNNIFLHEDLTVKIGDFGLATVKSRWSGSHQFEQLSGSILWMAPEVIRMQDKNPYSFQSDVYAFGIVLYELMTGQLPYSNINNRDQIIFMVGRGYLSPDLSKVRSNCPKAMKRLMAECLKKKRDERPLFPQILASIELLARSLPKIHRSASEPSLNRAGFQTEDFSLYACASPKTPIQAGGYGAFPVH
Chain of c-Src (P12931 whole entry, looked up): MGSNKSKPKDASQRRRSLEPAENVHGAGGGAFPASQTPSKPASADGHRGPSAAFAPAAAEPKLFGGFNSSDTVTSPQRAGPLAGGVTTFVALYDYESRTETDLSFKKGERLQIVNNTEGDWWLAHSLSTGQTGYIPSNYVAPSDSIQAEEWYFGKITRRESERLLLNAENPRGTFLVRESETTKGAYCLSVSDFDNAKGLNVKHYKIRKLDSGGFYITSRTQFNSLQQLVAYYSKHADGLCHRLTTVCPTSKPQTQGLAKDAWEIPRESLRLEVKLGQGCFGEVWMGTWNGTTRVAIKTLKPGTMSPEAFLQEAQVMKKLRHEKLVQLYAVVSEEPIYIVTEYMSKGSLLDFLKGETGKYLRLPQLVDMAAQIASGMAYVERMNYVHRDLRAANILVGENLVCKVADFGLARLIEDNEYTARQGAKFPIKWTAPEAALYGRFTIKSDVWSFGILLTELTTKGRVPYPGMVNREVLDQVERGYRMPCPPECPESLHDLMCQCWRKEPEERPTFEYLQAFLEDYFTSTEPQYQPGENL
Chain of B-Raf (V600E) (P15056 whole entry V600E): as the sequence (P15056 whole entry) above, with V600E counted along it
Chain of p38 MAPKα (MAPK14) (Q16539 whole entry): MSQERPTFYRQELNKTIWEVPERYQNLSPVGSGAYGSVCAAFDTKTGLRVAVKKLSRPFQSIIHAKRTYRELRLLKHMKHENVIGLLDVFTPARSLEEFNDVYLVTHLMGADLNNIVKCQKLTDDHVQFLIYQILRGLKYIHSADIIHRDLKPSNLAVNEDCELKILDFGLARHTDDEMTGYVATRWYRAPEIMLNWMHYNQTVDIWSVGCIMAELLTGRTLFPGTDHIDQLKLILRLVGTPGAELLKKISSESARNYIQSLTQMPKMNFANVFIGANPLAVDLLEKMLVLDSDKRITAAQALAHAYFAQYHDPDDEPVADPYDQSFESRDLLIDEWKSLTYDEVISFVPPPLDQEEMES

COc1cc(Nc2cc(Oc3ccc(NC(=O)Nc4cc(C(C)(C)C)cc(NS(C)(=O)=O)c4OC)c4ccccc34)ccn2)cc(OC)c1C(=O)NCCOCCOCCO [Example 36, 4-((4-((4-(3-(5-(tert-butyl)-2-methoxy-3-(methylsulfonamido)phenyl)ureido)naphthalen-1-yl)oxy)pyridin-2-yl)amino)-N-(2-(2-(2-hydroxyethoxy)ethoxy)ethyl)-2,6-dimethoxybenzamide]
number of individual kinase hits S(1) (non-mutant kinases; 50 nM): 1 | number of individual kinase hits S(10) (non-mutant kinases; 50 nM): 20 | number of individual kinase hits S(35) (non-mutant kinases; 50 nM): 60 | KinomeScan Selectivity Score S(1) (non-mutant kinases; 50 nM): 0.002 | KinomeScan Selectivity Score S(10) (non-mutant kinases; 50 nM): 0.050 | KinomeScan Selectivity Score S(35) (non-mutant kinases; 50 nM): 0.149 | number of individual kinase hits S(1) (non-mutant kinases; 500 nM): 32 | number of individual kinase hits S(10) (non-mutant kinases; 500 nM): 83 | number of individual kinase hits S(35) (non-mutant kinases; 500 nM): 120 | KinomeScan Selectivity Score S(1) (non-mutant kinases; 500 nM): 0.079 | KinomeScan Selectivity Score S(10) (non-mutant kinases; 500 nM): 0.206 | KinomeScan Selectivity Score S(35) (non-mutant kinases; 500 nM): 0.298 | IC50 (p38 MAPKα (MAPK14)): 19 nM | % Viability at 1 μg/mL (Jurkat cells; 1 μg/mL): 93.3% | % Viability at 5 μg/mL (Jurkat cells; 5 μg/mL): 89.3% | % Viability at 20 μg/mL (Jurkat cells; 20 μg/mL): 84.9% | effect on the binding of B-Raf (V600E) to its standard ligand (B-Raf (V600E)): did not have any significant effect | effect on the binding of B-Raf to its standard ligand (B-Raf): did not have any significant effect | concentration at 0.5 h [1, 2]: 37.8 ng/g | concentration at 1 h [1, 2]: 95.1 ng/g | concentration at 2 h [1, 2]: 643 ng/g | concentration at 4 h [1, 2]: 798 ng/g | concentration at 6 h [1, 2]: 380 ng/g | concentration at 8 h [1, 2]: 1070 ng/g | concentration at 12 h [1, 2]: 139 ng/g | concentration at 24 h [1, 2]: 0 ng/g | concentration at 0.5 h [1, 3]: 0 ng/mL | concentration at 1 h [1, 3]: 0 ng/mL | concentration at 2 h [1, 3]: 0 ng/mL | concentration at 4 h [1, 3]: 0 ng/mL | concentration at 6 h [1, 3]: 0 ng/mL | concentration at 8 h [1, 3]: 0 ng/mL | concentration at 12 h [1, 3]: 0 ng/mL | concentration at 24 h [1, 3]: 0 ng/mL | IC50 (c-Src): 10 nM | IC50 (Syk): 190 nM
